# From patent publication US11879001B2, “Conjugate comprising an IL-2 moiety” (ASCENDIS PHARMA ONCOLOGY DIVISION A/S, priority 2020, dated 2024)
# Several values for one entry are separate records, joined by “and”; a condition that tells them apart may be missing. Equal entries are not always repeated.
# Experiments:
# human IL-2Rβ = target: T1, human IL-2Rβ (Homo sapiens, UniProt P14784); assay: Biacore binding to human IL-2Rβ-Fc
# T1 construct: purchased
# T1 sequence (P14784 27-551): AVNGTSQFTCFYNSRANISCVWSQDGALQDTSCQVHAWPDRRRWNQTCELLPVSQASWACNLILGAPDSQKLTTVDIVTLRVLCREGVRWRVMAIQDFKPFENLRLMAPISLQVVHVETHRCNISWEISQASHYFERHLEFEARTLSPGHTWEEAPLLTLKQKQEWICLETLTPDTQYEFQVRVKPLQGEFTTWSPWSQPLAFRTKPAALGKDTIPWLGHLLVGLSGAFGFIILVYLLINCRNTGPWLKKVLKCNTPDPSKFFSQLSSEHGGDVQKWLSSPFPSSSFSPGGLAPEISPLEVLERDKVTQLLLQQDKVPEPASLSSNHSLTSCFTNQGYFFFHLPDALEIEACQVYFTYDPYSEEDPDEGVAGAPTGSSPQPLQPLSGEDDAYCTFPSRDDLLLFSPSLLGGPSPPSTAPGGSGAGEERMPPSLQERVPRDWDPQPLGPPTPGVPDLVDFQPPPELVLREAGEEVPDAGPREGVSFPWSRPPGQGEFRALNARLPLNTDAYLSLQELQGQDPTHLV
# Method: (§1) Binding affinity/kinetics needed to determine the KD of biased IL-2 to IL-2Rα, the KD of biased IL-2 to IL-2Rβ, the KD of aldesleukin to IL-2Rα and the KD of aldesleukin to IL-2Rβ may be assessed using surface plasmon resonance (SPR), measured on a Biacore instrument (GE Healthcare) as follows: A human Fc capture surface on a CM5 (or alternatively C1 or CM4) chip is prepared by covalent coating with anti-human Fc antibody or alternatively a protein A chip is used. Next, IL-2Rβ-Fc or IL2-Rα-Fc is immobilized on the chip. […] Analytes are each exposed to the receptor-modified chip for a suitable amount of time, such as for 1 to 30 minutes, which may for example be 2 minutes or may be 3 minutes and are then washed away for a suitable amount of time, such as 2 to 60 minutes, which may for example be 10 minutes. The resulting binding curves from the dilution series are fit to a 1:1 kinetic model to correlate observed response units (R) to the association and dissociation rate constants, ka and kd: […]
# IL-6 = assay: Serum IL-6 cytokine levels (ELISA or MSD) in treated Cynos; type: in vivo, Cynomolgus macaques; settings: ~0.044 mg/kg IV x5 daily
# Method: (§2) Two studies were conducted to measure the pharmacodynamic effects of either Aldesleukin (Prometheus, National Drug Code 65483011607) (SEQ ID NO:15) 11 or 5 in Cynos. In the first study, four Cynos ranging in weight from 7.77-10.6 kg (average 9.2 kg) were treated intravenously with five sequential daily 0.4 mg doses of 11 on days 1-5 (average mg/kg: 0.044). In the second study, four Cynos ranging in weight from 2.46-3.69 kg (average 3.13 kg) were treated with a single intravenous dose of either 0.1 mg/kg (n=2) or 0.3 mg/kg (n=2) of 5. All animals were chair trained prior to the study. For both studies, peripheral blood samples were taken before and after treatment at various timepoints as indicated and analyzed for lymphocyte counts, eosinophil counts and cytokines. For animals treated with 5, additional flow cytometry experiments were performed. For measurements of (absolute) lymphocyte counts and eosinophil counts, whole blood was processed on hematology analyzers. For IL-5 and IL-6 cytokine measurements, serum was processed from whole blood and analyzed by ELISA or MSD. For flow cytometry measurements (Immunophenotyping, IPT, FACS), Cynomolgus monkey whole blood was collected in EDTA anticoagulant and kept at room temperature until processed for flow cytometry. Blood was lysed and samples were stained for extracellular surface markers and intracellular phenotypic and lineage markers by standard methods. Cell populations were analyzed using the following phenotypes and gated for percentage of cells which were positive for proliferation marker Ki67.
# IL-5 = assay: Serum IL-5 cytokine levels (ELISA or MSD) in treated Cynos; type: in vivo, Cynomolgus macaques; settings: ~0.044 mg/kg IV x5 daily
# Method: as §2, with “For flow cytometry measurements (Immunophenotyping, IPT, FACS), Cynomolgus monkey whole blood was collected in EDTA anticoagulant and kept at room temperature until processed for flow cytometry. Blood was lysed and samples were stained for extracellular surface markers and intracellular phenotypic and lineage markers by standard methods.” left out
# human IL-2Rα = target: T2, human IL-2Rα (Homo sapiens, UniProt P01589); assay: Biacore binding to human IL-2Rα-Fc; settings: independent measurement
# T2 construct: purchased
# T2 sequence (P01589 22-272): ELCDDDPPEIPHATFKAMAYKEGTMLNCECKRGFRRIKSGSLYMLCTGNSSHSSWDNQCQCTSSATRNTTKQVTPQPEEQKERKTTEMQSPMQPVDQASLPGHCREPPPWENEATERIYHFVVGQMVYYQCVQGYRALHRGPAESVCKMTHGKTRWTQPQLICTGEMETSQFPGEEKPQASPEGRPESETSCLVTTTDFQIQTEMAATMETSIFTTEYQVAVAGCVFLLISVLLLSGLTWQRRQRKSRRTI
# Method: as §1
# [1] = test system: peripheral blood lymphocytes and eosinophils; assay: Peripheral blood lymphocyte and eosinophil counts (hematology analyzers) in treated Cynos; type: in vivo, Cynomolgus macaques; settings: ~0.044 mg/kg IV x5 daily
# Method: as §2
# [2] = test system: pSTAT5 in Tregs, CD8+ T cells, NK cells; assay: pSTAT5 in lymphocyte subsets of whole human blood (flow cytometry); type: cell-based
# Method: (§3) To evaluate the cell type specific immunostimulatory effects of 3 in primary human or monkey cells, whole human or cynomolgus monkey blood from two donors each was incubated with various concentrations of 3 or 13 for 30 minutes and analyzed by flow cytometry for intracellular levels of phosphorylated STAT5 (pSTAT5) in unique cell subsets such as Tregs which predominately express IL-2Rα/β/γ as well as CD8+ T cells (CD8) and NK cells which predominately express IL-2Rβ/γ. Additionally, CD8^+ T cells were further analyzed for CD8^+ CD45RA^+ Naïve (CD8 N) as well as CD8^+ CD45RA^− Memory (CD8 M) subsets. Similar experiments were performed with mouse blood using a different panel of mouse specific antibodies. All subsets were analyzed for median fluorescence intensities of pSTAT5 and EC50 values were calculated for each compound across all cell types.
# [3] = test system: pSTAT5 in Tregs, CD8+ T cells, NK cells; assay: pSTAT5 in lymphocyte subsets of mouse blood (flow cytometry); type: cell-based
# Method: [The source words this procedure for another organism and says it was used here with some conditions changed.] as §3, with “Similar experiments were performed with mouse blood using a different panel of mouse specific antibodies.” left out
# [4] = test system: pSTAT5 in Tregs, CD8+ T cells, NK cells; assay: pSTAT5 in lymphocyte subsets of whole cynomolgus monkey blood (flow cytometry); type: cell-based
# Method: as §3
substance,measurement,setting,value
"11: Aldesleukin, recombinant human Interleukin-2 (SEQ ID NO:15) [Compound 11]",KD for IL-2Rβ compared with 12,human IL-2Rβ; independent measurement,highly comparable KD values
same,average serum peak IL-6 levels,IL-6,58.66 pg/mL
same,IL-6,IL-6; Study Day 2.25,6.79 pg/mL and 9.02 pg/mL and 7.69 pg/mL and 9.95 pg/mL
same,IL-6,IL-6; Study Day 5,0.75 pg/mL and 0.81 pg/mL and 0.46 pg/mL and 0.48 pg/mL
same,IL-6,IL-6; Study Day 5.25,3.67 pg/mL and 3.59 pg/mL and 2.42 pg/mL and 4.21 pg/mL
same,average serum peak IL-5 levels,IL-5,117.78 pg/mL
same,IL-5,IL-5; Study Day -3,0.28 pg/mL and 0.1895 pg/mL and 0.2445 pg/mL and 0.233 pg/mL
same,KD for IL-2Rα compared with 12,human IL-2Rα,highly comparable KD values
same,average fold increase in eosinophil counts,[1]; Day 8,6.92 fold
same,average fold increase in lymphocyte counts,[1]; Day 8,2.77 fold
same,average fold increase in eosinophil counts,[1]; Day 10,5.94 fold
same,average fold increase in lymphocyte counts,[1]; Day 10,2.79 fold
same,Lymphocyte Counts,[1]; Study Day 1,4995 µL⁻¹ and 4670.6 µL⁻¹ and 4845 µL⁻¹ and 4617.6 µL⁻¹
same,Lymphocyte Counts,[1]; Study Day 4,3739.1 µL⁻¹ and 2646 µL⁻¹ and 2703.2 µL⁻¹ and 3034 µL⁻¹
same,Lymphocyte Counts,[1]; Study Day 5,4144.5 µL⁻¹ and 3990 µL⁻¹ and 3784 µL⁻¹
same,Lymphocyte Counts,[1]; Study Day 8,11186 µL⁻¹ and 11088 µL⁻¹ and 8086 µL⁻¹ and 14958 µL⁻¹
same,Lymphocyte Counts,[1]; Study Day 9,10260 µL⁻¹ and 10045 µL⁻¹ and 9548 µL⁻¹ and 13878 µL⁻¹
same,Lymphocyte Counts,[1]; Study Day 10,8316 µL⁻¹ and 10664 µL⁻¹ and 12079 µL⁻¹ and 14885 µL⁻¹
same,Lymphocyte Counts,[1]; Study Day 11,7304 µL⁻¹ and 9640 µL⁻¹ and 8736 µL⁻¹ and 7720 µL⁻¹
same,Lymphocyte Counts,[1]; Study Day 12,5652 µL⁻¹ and 9520 µL⁻¹ and 8325 µL⁻¹ and 7518 µL⁻¹
same,Lymphocyte Counts,[1]; Study Day 15,6720 µL⁻¹ and 9700 µL⁻¹ and 5468.3 µL⁻¹ and 6198.4 µL⁻¹
same,Lymphocyte Counts,[1]; Study Day 19,2385.6 µL⁻¹ and 3965.5 µL⁻¹ and 2067 µL⁻¹ and 3139.5 µL⁻¹
same,Lymphocyte Counts,[1]; Study Day -4 (Baseline),4032 µL⁻¹ and 4514.4 µL⁻¹ and 4189.5 µL⁻¹ and 3564 µL⁻¹
same,Lymphocyte Counts,[1]; Study Day -5 (Baseline),4074 µL⁻¹ and 3530.6 µL⁻¹ and 4719 µL⁻¹ and 4376.3 µL⁻¹
12: unbiased control recombinant human IL-2 (SEQ ID NO:45) [Compound 12],Kd,human IL-2Rβ; Biacore,~500 nM
13: his-tagged mammalian expressed control human IL-2 (SEQ ID NO:46) [Compound 13],"pSTAT5 EC50, CD8","[2]; additional human blood experiments (Table 29), CD8",4.94 ng/mL
same,"pSTAT5 EC50, NK","[2]; additional human blood experiments (Table 29), NK",17.59 ng/mL
same,"pSTAT5 EC50, Treg","[2]; additional human blood experiments (Table 29), Treg",0.047 ng/mL
same,EC50 for pSTAT5 in NK cells,"[2]; human blood, 30 minutes",6.01 ng/ml
same,EC50 for pSTAT5 in Tregs,"[2]; human blood, 30 minutes",0.09 ng/ml
same,"pSTAT5 EC50, CD8","[2]; whole human blood, 30 minutes, CD8+ T cells (Table 27)",25.69 ng/mL
same,"Fold Potency Loss vs Human, CD8","[3]; mouse CD8 vs human CD8, pSTAT5 EC50",935.79
same,"Fold Potency Loss vs Human, NK","[3]; mouse NK vs human NK, pSTAT5 EC50",1613.10
same,"Fold Potency Loss vs Human, Treg","[3]; mouse Treg vs human Treg, pSTAT5 EC50",4.11
same,EC50 for pSTAT5 in NK cells,[3]; mouse blood,"9,694.74 ng/ml"
same,EC50 for pSTAT5 in Tregs,[3]; mouse blood,0.37 ng/ml
same,"pSTAT5 EC50, CD8","[3]; mouse blood, CD8+ T cells","24,040.56 ng/mL"
same,"Fold Potency Loss vs Human, Treg","[4]; cynomolgus monkey Treg vs human Treg, pSTAT5 EC50",1
same,"pSTAT5 EC50, Treg","[4]; whole cynomolgus monkey blood, 30 minutes, Treg",0.09 ng/mL
